Data taken from PMC7099625, “Exploration of thiaheterocyclic hHDAC6 inhibitors as potential antiplasmodial agents” (Future Medicinal Chemistry, 2017).
pIC50: −log10 of the molar value. Like-named read-outs stand apart in the source and are kept apart here.

Key:
P. falciparum (NF54) = assay: Antiplasmodial parasite lactate dehydrogenase assay, chloroquine-sensitive strain NF54; format: cell-based, Plasmodium falciparum; details: read-out: IC50 NF54
Protocol: (§1) Continuous in vitro cultures of asexual erythrocyte stages of P. falciparum were maintained using a modified method of Trager and Jensen. Quantitative assessment of antiplasmodial activity in vitro was determined via the parasite lactate dehydrogenase assay using a modified method described by Makler. The test samples were prepared to a 20 mg/ml stock solution in 100% DMSO. Stock solutions were stored at -20°C. Further dilutions were prepared in complete medium on the day of the experiment. CQ and artesunate were used as the reference drugs. A full dose–response was performed to determine the concentration inhibiting 50% of parasite growth (IC50 value). Test samples were tested at a starting concentration of 100 μg/ml, which was then serially diluted twofold in complete medium to give 10 concentrations; with the lowest concentration being 0.2 μg/ml. The same dilution technique was used for all samples. References were tested at a starting concentration of 1 μg/ml.
(§2) The antiplasmodial activity of this set of structures was first determined through a modified parasite lactate dehydrogenase assay against a CQ-sensitive (CQS) strain of P. falciparum (NF54). […] Finally, a selectivity index (SI = IC50 CHO/IC50 NF54) and a resistance index (RI = IC50 Dd2/IC50 NF54) was calculated to be able to easily compare the therapeutic window (active concentration vs toxic concentration) and sensitivity toward resistance developing.

[1] = tested on: Chinese Hamster Ovary (CHO) cells; assay: MTT in vitro cytotoxicity assay; format: cell-based; details: triplicate on one occasion
Protocol: Test samples were screened for in vitro cytotoxicity against a mammalian cell-line, Chinese Hamster Ovary (CHO), using the 3-(4,5-dimethylthiazol-2-yl)-2,5-diphenyltetrazoliumbromide (MTT)-assay. The MTT-assay is used as a colorimetric assay for cellular growth and survival, and compares well with other available assays. The tetrazolium salt MTT was used to measure all growth and chemosensitivity. The test samples were tested in triplicate on one occasion. The same stock solutions prepared for antiplasmodial evaluation were used for cytotoxicity testing. Test compounds were stored at -20°C until use. Dilutions were prepared on the day of the experiment. Emetine was used as the reference drug in all experiments. The starting concentration was 100 μg/ml, which was serially diluted in complete medium with tenfold dilutions to give six concentrations, the lowest being 0.001 μg/ml. […] The IC50 values were obtained from full dose–response curves, using a nonlinear dose–response curve fitting analysis via GraphPad Prism v.4 software. […]

P. falciparum (Dd2) = assay: Antiplasmodial parasite lactate dehydrogenase assay, chloroquine-resistant strain Dd2; format: cell-based, Plasmodium falciparum; details: read-out: IC50 Dd2
Protocol: as §1, §2

hHDAC6 = tested on: hHDAC6; parameters: method as in PMID 23538448, PMID 25994553, PMID 26822143, PMID 27717044; details: hHDAC6 inhibition, previously described; read-out: IC50 HDAC6; cited from earlier work
[2] = chloroquine-sensitive (CQS) P. falciparum strain NF54, asexual erythrocyte stages, pLDH assay
[3] = chloroquine-resistant (CQR) P. falciparum strain Dd2, asexual erythrocyte stages, pLDH assay

Compound | pIC50 (P. falciparum (NF54); [2]) | pIC50 (P. falciparum (Dd2); [3]) | pIC50 [1] | pIC50 (hHDAC6) | further results
O=C(NO)c1cccc(Cn2c3c(c4ccccc42)CS(=O)(=O)CC3)c1 [Compound 1p] | 5.26 | – | – | – | –
CC[C@H]1CN2CCc3cc(OC)c(OC)cc3[C@@H]2C[C@@H]1C[C@H]1NCCc2cc(OC)c(OC)cc21 [Emetine, reference compound] | – | – | – | – | pIC50 ([1]; Cricetulus griseus): 6.95
CCN(CC)CCCC(C)Nc1ccnc2cc(Cl)ccc12 (stereo not shown) [Chloroquine, chloroquine, reference compound] | – | – | – | – | pIC50 (P. falciparum (Dd2); Plasmodium falciparum, DD2, Erythrocyte): 6.76; pIC50 (P. falciparum (NF54); Plasmodium falciparum, NF54, Erythrocyte): 8.00
O=C(NO)c1ccc(Cn2c3c(c4cc(F)ccc42)C[S+]([O-])CC3)cc1 (racemic) [Compound 1k] | – | 6.10 | < 3.57 | – | –
O=C(NO)c1ccc(Cn2c3c(c4cc(F)ccc42)CSCC3)cc1 [Compound 1c] | 5.66 | 5.51 | 3.98 | 7.66 | –
C[C@H]1[C@H](OC(=O)CCC(=O)O)O[C@@H]2O[C@@]3(C)CC[C@H]4[C@H](C)CC[C@@H]1[C@@]24OO3 [Artesunate, artesunate, reference compound] | – | – | – | – | pIC50 (P. falciparum (Dd2); Plasmodium falciparum, chloroquine-resistant (CQR) P. falciparum strain Dd2, asexual erythrocyte stages, pLDH assay): 7.80; pIC50 (P. falciparum (NF54); Plasmodium falciparum, chloroquine-sensitive (CQS) P. falciparum strain NF54, asexual erythrocyte stages, pLDH assay): > 8.00
O=C(NO)c1ccc(Cn2c3c(c4cc(Br)ccc42)CS(=O)(=O)CC3)cc1 [Compound 1i] | – | – | 3.96 | – | –
O=C(NO)c1ccc(Cn2c3c(c4ccccc42)CSCC3)cc1 [Compound 1a] | 4.43 | – | – | 7.82 | –
O=C(NO)c1ccc(CN2c3cc(Cl)ccc3S(=O)(=O)CC3CCCC32)cc1 (racemic) [Compound 3e] | – | – | 4.45 | 7.17 | –
COc1cc(C(=O)NO)ccc1Cn1c2c(c3ccccc31)CS(=O)(=O)CC2 [Compound 1f] | 4.68 | – | – | 5.70 | –
O=C(NO)c1cccc(Cn2c3c(c4ccccc42)CSCC3)c1 [Compound 1n] | 5.83 | 5.66 | < 3.53 | – | –
COc1cc(C(=O)NO)ccc1Cn1c2c(c3ccccc31)CSCC2 [Compound 1b] | 4.85 | – | – | – | –
O=C(NO)c1ccc(Cn2c3c(c4cc(F)ccc42)CS(=O)(=O)CC3)cc1 [Compound 1g] | 4.80 | – | – | 8.40 | –
O=C(NO)c1cccc(Cn2c3c(c4cc(F)ccc42)CS(=O)(=O)CC3)c1 [Compound 1q] | 5.11 | – | – | – | –
COc1cc(C(=O)NO)ccc1Cn1c2c(c3cc(F)ccc31)CS(=O)(=O)CC2 [Compound 1h] | 4.49 | – | – | 5.89 | –
O=C(NO)c1ccc(Cn2c3c(c4ccccc42)C[S+]([O-])CC3)cc1 (racemic) [Compound 1j] | 5.89 | 5.89 | < 3.55 | 7.85 | –
COc1cc(C(=O)NO)ccc1Cn1c2c(c3cc(F)ccc31)CSCC2 [Compound 1d] | 4.63 | – | – | – | –
O=C(NO)c1cccc(Cn2c3c(c4cc(-c5ccccc5)ccc42)CS(=O)(=O)CC3)c1 [Compound 1r] | 5.09 | – | – | – | –
O=C(NO)c1ccc(Cn2c3c(c4ccccc42)CS(=O)(=O)CC3)cc1 [Compound 1e] | 4.97 | – | – | 8.70 | –
O=C(NO)c1cccc(Cn2c3c(c4cc(F)ccc42)CSCC3)c1 [Compound 1o] | 5.88 | 5.84 | 4.32 | – | –

Continued, in another order:

pIC50 (P. falciparum (NF54); [2]) | pIC50 (P. falciparum (Dd2); [3]) | Compound | pIC50 [1] | pIC50 (hHDAC6) | further results
4.43 | – | Cc1cc(C(=O)NO)ccc1NCc1csc2ccccc12 [Compound 2k] | – | – | –
5.30 | – | O=C(NO)c1ccc(N(Cc2ccccc2)Cc2csc3cc(-c4ccccc4)ccc23)cc1 [Compound 2j] | – | – | –
4.49 | – | O=C(NO)c1ccc(N(Cc2ccccc2)Cc2csc3ccccc23)cc1 [Compound 2b] | – | – | –
5.48 | 5.94 | O=C(NO)c1ccc(NCc2csc3cc(-c4ccccc4)ccc23)cc1 [Compound 2i] | 4.51 | – | –
5.24 | – | O=C(NO)c1ccc(N(Cc2ccccc2)Cc2csc3ccc(-c4ccccc4)cc23)cc1 [Compound 2f] | – | – | –
5.29 | – | O=C(NO)c1ccc(NCc2csc3ccc(-c4ccccc4)cc23)cc1 [Compound 2e] | – | – | –
< 5.61 | < 5.61 | O=C(NO)c1ccc(CN2c3cc(Cl)ccc3SCC3CCCC32)cc1 (racemic) [Compound 3b] | 4.38 | 6.19 | –
5.80 | < 5.57 | O=C(NO)c1ccc(CN2c3ccccc3SCC3CCCC32)cc1 (stereo not shown) [Compound 3a] | 3.98 | 7.44 | –
5.90 | < 5.59 | O=C(NO)c1ccc(CN2c3ccccc3[S+]([O-])CC3CCCC32)cc1 (stereo not shown) [Compound 3g] | 3.76 | 8.22 | –
5.99 | 5.62 | O=C(NO)c1ccc(NCc2csc3ccc(Br)cc23)cc1 [Compound 2c] | 4.51 | 7.43 | –
< 5.58 | < 5.58 | O=C(NO)c1ccc(CN2c3ccccc3SCC3CCCCC32)cc1 (stereo not shown) [Compound 3j] | 4.21 | 7.04 | –
5.82 | < 5.64 | O=C(NO)c1ccc(CN2c3cc(C(F)(F)F)ccc3SCC3CCCC32)cc1 (racemic) [Compound 3c] | 4.21 | 6.70 | –
5.89 | 5.80 | O=C(NO)c1ccc(NCc2csc3cc(Br)ccc23)cc1 [Compound 2g] | 4.34 | 7.19 | –
< 5.58 | < 5.58 | O=C(NO)c1ccc(CN2c3ccccc3SCC3CCCCC32)cc1 (stereo not shown) [Compound 3h] | 4.06 | 7.48 | –
5.07 | – | O=C(NO)c1ccc(N(Cc2ccccc2)Cc2csc3cc(Br)ccc23)cc1 [Compound 2h] | – | – | –
5.80 | 5.67 | O=C(NO)c1ccc(NCc2csc3ccccc23)cc1 [Compound 2a] | 4.90 | 7.85 | –
6.06 | 6.15 | O=C(NO)c1ccc(CN2c3cc(C(F)(F)F)ccc3S(=O)(=O)CC3CCCC32)cc1 (racemic) [Compound 3f] | 4.25 | – | –
– | 6.03 | O=C(NO)c1ccc(CN2c3ccccc3S(=O)(=O)CC3CCCC32)cc1 (stereo not shown) [Compound 3d] | 3.97 | – | –
< 5.61 | 5.80 | O=C(NO)c1ccc(CN2c3cc(Cl)ccc3SCC3CCCC32)cc1 (racemic) [Compound 3i] | 4.29 | 6.80 | –
4.75 | – | O=C(NO)c1ccc(N(Cc2ccccc2)Cc2csc3ccc(Br)cc23)cc1 [Compound 2d] | – | – | –
